Broadly, the IC50 is the concentration at which inhibition is half-maximal. A word on the EC50: it is the concentration needed to bring the measured effect to its halfway point.

For 18 molecules, IC50 and EC50 results are on record in US12590099B2, “Inhibitors of histone deacetylase useful for the treatment or prevention of HIV infection” (Merck Sharp & Dohme LLC, priority 2018, dated 2026).

For one test, the target named is T1, HDAC6 (Homo sapiens, UniProt Q9UBN7).
T1 sequence (Q9UBN7 1-1215): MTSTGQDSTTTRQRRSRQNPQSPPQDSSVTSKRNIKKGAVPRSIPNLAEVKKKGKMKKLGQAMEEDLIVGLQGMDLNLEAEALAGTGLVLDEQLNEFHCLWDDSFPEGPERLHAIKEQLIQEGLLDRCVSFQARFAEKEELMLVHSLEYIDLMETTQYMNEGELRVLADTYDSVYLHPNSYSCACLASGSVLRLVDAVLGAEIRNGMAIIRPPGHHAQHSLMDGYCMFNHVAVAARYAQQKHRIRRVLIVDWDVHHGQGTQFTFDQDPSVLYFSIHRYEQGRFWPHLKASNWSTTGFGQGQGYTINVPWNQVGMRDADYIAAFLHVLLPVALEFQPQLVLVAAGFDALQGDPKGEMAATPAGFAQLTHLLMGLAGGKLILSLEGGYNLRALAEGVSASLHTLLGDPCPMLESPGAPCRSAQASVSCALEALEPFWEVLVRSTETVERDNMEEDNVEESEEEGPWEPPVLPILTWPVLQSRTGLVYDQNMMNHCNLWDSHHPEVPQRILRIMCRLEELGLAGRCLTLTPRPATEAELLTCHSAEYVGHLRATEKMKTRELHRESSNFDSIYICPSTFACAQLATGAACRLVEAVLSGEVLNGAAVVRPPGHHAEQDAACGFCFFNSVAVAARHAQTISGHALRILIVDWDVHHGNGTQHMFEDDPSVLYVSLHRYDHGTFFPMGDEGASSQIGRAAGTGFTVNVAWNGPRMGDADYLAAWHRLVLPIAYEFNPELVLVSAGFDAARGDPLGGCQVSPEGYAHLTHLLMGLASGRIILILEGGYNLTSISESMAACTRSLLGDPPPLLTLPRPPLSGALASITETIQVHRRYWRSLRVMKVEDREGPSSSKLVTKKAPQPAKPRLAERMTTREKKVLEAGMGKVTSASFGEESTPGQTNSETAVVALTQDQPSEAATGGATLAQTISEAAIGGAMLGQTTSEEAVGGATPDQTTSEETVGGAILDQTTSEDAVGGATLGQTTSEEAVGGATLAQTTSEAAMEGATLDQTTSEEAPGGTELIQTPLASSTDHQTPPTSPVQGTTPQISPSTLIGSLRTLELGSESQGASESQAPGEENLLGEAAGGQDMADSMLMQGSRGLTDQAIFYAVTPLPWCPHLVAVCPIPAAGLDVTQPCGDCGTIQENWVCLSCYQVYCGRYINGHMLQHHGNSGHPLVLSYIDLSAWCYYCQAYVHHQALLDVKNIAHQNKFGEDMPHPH
The experiment in a line: Human HDAC enzyme inhibitor Fluor-de-Lys assay, HDAC6. Format: biochemical. The settings on record: HDAC6, Fluor-de-Lys assay.

The next test addresses T2, Recombinant human HDAC8 (Homo sapiens, UniProt Q9BY41).
T2 construct: purchased Enzo Life Sciences BML-SE145-0100
T2 sequence (Q9BY41 1-377): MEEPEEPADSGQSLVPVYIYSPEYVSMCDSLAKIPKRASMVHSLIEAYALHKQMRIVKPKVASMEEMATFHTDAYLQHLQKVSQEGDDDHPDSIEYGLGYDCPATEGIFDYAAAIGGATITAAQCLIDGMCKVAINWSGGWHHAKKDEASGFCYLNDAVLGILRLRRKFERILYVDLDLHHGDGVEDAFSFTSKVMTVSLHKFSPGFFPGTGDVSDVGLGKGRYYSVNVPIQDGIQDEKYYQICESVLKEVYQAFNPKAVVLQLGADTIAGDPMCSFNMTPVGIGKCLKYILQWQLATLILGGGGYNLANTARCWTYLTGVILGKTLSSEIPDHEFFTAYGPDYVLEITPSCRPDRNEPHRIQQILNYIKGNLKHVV
The test is described as follows: Human HDAC enzyme inhibitor Fluor-de-Lys assay, HDAC8. Particulars: recombinant human HDAC8, Fluor-de-Lys assay. Format: biochemical.

Another test has as its system KARN cells (Jurkat 2C4). The test is described as follows: cells. Format: cell-based. The settings on record: luciferase induction, 100% = 2 μM SAHA. A digest of the protocol: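 Jurkat 2C4 (KARN) cells dosed with test compounds up to 40 μM final, 0.4% DMSO, overnight at 5% CO2; luciferase read by Steady-Glo luminescence after 10 min at room temperature. DMSO set as 0% and 2 μM SAHA as 100% induction; 4-parameter fit of percent activation.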

Setting [1] is: Homo sapiens, Jurkat, read-out: Karn EC50 (nM) 0.1% NHS, 0.1% normal human serum.
The mark [2] stands for this setting: Homo sapiens, Jurkat, read-out: Karn EC50 (nM) 5% NHS, 5% normal human serum.

Read-outs that look alike come from different tables or passages of the source.

In the case of `CCC(=O)CCCCC[C@H](NC(=O)C1CC12CCN(C)CC2)c1ncc(-c2cc3ccccc3nc2OC)[nH]1` (stereo partly drawn) [Compound 313, N—((S)-1-(5-(2-methoxyquinolin-3-yl)-1H-imidazol-2-yl)-7-oxononyl)-6-methyl-6-azaspiro[2.5]octane-1-carboxamide], the results for the concentration for half-maximal inhibition (IC50) against HDAC6 and at Recombinant human HDAC8 were 246 nM and 3020 nM, respectively. The EC50 was 57 nM with KARN cells (Jurkat 2C4) (setting [1]) and 272 nM with KARN cells (Jurkat 2C4) (setting [2]).

Turning to `CCC(=O)CCCCC[C@H](NC(=O)C1CCC2(CC1)CN(C)C2)c1ncc(-c2cc3ccccc3nc2OC)[nH]1` [Compound 315], the IC50 was determined as 459 nM against HDAC6 and 1950 nM at Recombinant human HDAC8. Also, the EC50 in the test on KARN cells (Jurkat 2C4) (setting [1]) turned out to be 86 nM; in the test on KARN cells (Jurkat 2C4) (setting [2]), 688 nM.

As to `CCC(=O)CCCCC[C@H](NC(=O)C1CCC2(CC1)CN(C)C2)c1ncc(-c2cc3ccccc3nc2OC)[nH]1` [Compound 316], the values for the IC50 against HDAC6 and at Recombinant human HDAC8 were 387 nM and 1680 nM, respectively. The EC50 with KARN cells (Jurkat 2C4) (read-out: Karn EC50 (nM) 0.1% NHS, 0.1% normal human serum) was 151 nM; in the test on KARN cells (Jurkat 2C4) (read-out: Karn EC50 (nM) 5% NHS, 5% normal human serum), 660 nM.

Turning to `CCC(=O)CCCCC[C@H](NC(=O)[C@@H]1CC12CN(C)C2)c1ncc(-c2cc3ccccc3nc2OC)[nH]1` [Compound 322], the IC50 is 219 nM against HDAC6 and 2490 nM at Recombinant human HDAC8. In addition, the EC50 was 74 nM in the test with KARN cells (Jurkat 2C4) (setting [1]) and 287 nM in the test with KARN cells (Jurkat 2C4) (setting [2]).

Turning to `CCC(=O)CCCCC[C@H](NC(=O)[C@H]1CC12CN(C)C2)c1ncc(-c2cc3ccccc3nc2OC)[nH]1` [Compound 323], the results for the IC50 against HDAC6 and at Recombinant human HDAC8 were 376 nM and 2300 nM, respectively. In addition, the EC50 in the test with KARN cells (Jurkat 2C4) (setting [1]) was determined as 284 nM; in the test with KARN cells (Jurkat 2C4) (setting [2]) it was 1290 nM.

Regarding `CCC(=O)CCCCC[C@H](NC(=O)[C@H]1C[C@@]12CCN(C)C2)c1ncc(-c2cc3ccccc3nc2OC)[nH]1` [Compound 328], the IC50 against HDAC6 came to 395 nM; on Recombinant human HDAC8, 3310 nM. Further, the concentration for a half-maximal effect (EC50) turned out to be 73 nM with KARN cells (Jurkat 2C4) (setting [1]) and 322 nM in the test on KARN cells (Jurkat 2C4) (setting [2]).

Regarding `CCC(=O)CCCCC[C@H](NC(=O)[C@@H]1C[C@]12CCN(C)C2)c1ncc(-c2cc3ccccc3nc2OC)[nH]1` [Compound 329], the values for the IC50 on HDAC6 and at Recombinant human HDAC8 were more than 150 nM and 7040 nM, respectively. Besides, the half-maximal effective concentration (EC50) in the test on KARN cells (Jurkat 2C4) (setting [1]) was 262 nM; in the test with KARN cells (Jurkat 2C4) (setting [2]) it was 1140 nM.

As for `CCC(=O)CCCCC[C@H](NC(=O)[C@@H]1C[C@@]12CCN(C)C2)c1ncc(-c2cc3ccccc3nc2OC)[nH]1` [Compound 330], the IC50 against HDAC6 amounted to 632 nM; on Recombinant human HDAC8, 13700 nM. Besides, the EC50 with KARN cells (Jurkat 2C4) (setting [1]) was 309 nM; in the test on KARN cells (Jurkat 2C4) (setting [2]) it was 1150 nM.

For `CCCN1CCC2(CC1)C[C@@H]2C(=O)N[C@@H](CCCCCC(=O)CC)c1ncc(-c2cc3ccccc3nc2OC)[nH]1` [Compound 331], the IC50 against HDAC6 came to 490 nM; at Recombinant human HDAC8, 2030 nM. For the same molecule, the values for the EC50 with KARN cells (Jurkat 2C4) (setting [1]) and in the test with KARN cells (Jurkat 2C4) (setting [2]) were 154 nM and 896 nM, respectively.

In the case of `CCC(=O)CCCCC[C@H](NC(=O)[C@H]1CC12CCN(CCC(F)(F)F)CC2)c1ncc(-c2cc3ccccc3nc2OC)[nH]1` [Compound 332], the figures for the 50% inhibitory concentration (IC50) against HDAC6 and at Recombinant human HDAC8 were 745 nM and 14100 nM, respectively. Besides, the EC50 came out at 78 nM in the test on KARN cells (Jurkat 2C4) (setting [1]) and 343 nM in the test on KARN cells (Jurkat 2C4) (setting [2]).

With `CCC(=O)CCCCC[C@H](NC(=O)[C@H]1CC12CCN(CC(F)(F)F)CC2)c1ncc(-c2cc3ccccc3nc2OC)[nH]1` [Compound 333], the IC50 against HDAC6 is 1110 nM; on Recombinant human HDAC8 it was 6090 nM. Besides, the EC50 in the test with KARN cells (Jurkat 2C4) (setting [1]) came to 113 nM; with KARN cells (Jurkat 2C4) (setting [2]), 719 nM.

As to `CCC(=O)CCCCC[C@H](NC(=O)[C@H]1CC12CCN(CC(C)C)CC2)c1ncc(-c2cc3ccccc3nc2OC)[nH]1` [Compound 335], the IC50 was 329 nM against HDAC6 and 3280 nM on Recombinant human HDAC8. The figures for the EC50 in the test on KARN cells (Jurkat 2C4) (setting [1]) and with KARN cells (Jurkat 2C4) (setting [2]) were 31 nM and 63 nM, respectively.

As to `CCC(=O)CCCCC[C@H](NC(=O)[C@H]1CC12CCN(CC1CC1)CC2)c1ncc(-c2cc3ccccc3nc2OC)[nH]1` [Compound 336], the IC50 came to 189 nM at HDAC6 and 3130 nM on Recombinant human HDAC8. Moreover, the half-maximal effective concentration (EC50) in the test with KARN cells (Jurkat 2C4) (setting [1]) was 16 nM; with KARN cells (Jurkat 2C4) (setting [2]) it was 30 nM.

As for `CCC(=O)CCCCC[C@H](NC(=O)[C@H]1CC12CCN(C(C)C)CC2)c1ncc(-c2cc3ccccc3nc2OC)[nH]1` [Compound 337], the concentration for half-maximal inhibition (IC50) at HDAC6 is 160 nM; on Recombinant human HDAC8, 5660 nM. Further, the figures for the EC50 with KARN cells (Jurkat 2C4) (setting [1]) and with KARN cells (Jurkat 2C4) (setting [2]) were 32 nM and 57 nM, respectively.

Consider `CCC(=O)CCCCC[C@H](NC(=O)[C@H]1CCC12CCN(CC)CC2)c1ncc(-c2cc3ccccc3nc2OC)[nH]1` [Compound 338], for which the IC50 at HDAC6 came to 405 nM; at Recombinant human HDAC8, 2930 nM. The EC50 in the test with KARN cells (Jurkat 2C4) (setting [1]) amounted to 44 nM; in the test on KARN cells (Jurkat 2C4) (setting [2]), 111 nM.

`CCC(=O)CCCCC[C@H](NC(=O)[C@H]1CC12CCN(CC)CC2)c1ncc(-c2ccc3cccnc3c2)[nH]1` [Compound 344]: the values for the concentration for half-maximal inhibition (IC50) against HDAC6 and on Recombinant human HDAC8 were 862 nM and 3420 nM, respectively. The 50% effective concentration (EC50) in the test on KARN cells (Jurkat 2C4) (setting [1]) was 37 nM; in the test with KARN cells (Jurkat 2C4) (setting [2]), 54 nM.

Consider `CCC(=O)CCCCC[C@H](NC(=O)[C@H]1CC12CCN(CC)CC2)c1ncc(-c2ccc3ncccc3c2)[nH]1` [Compound 346], for which the figures for the IC50 on HDAC6 and at Recombinant human HDAC8 were 545 nM and 3160 nM, respectively. Moreover, the EC50 in the test with KARN cells (Jurkat 2C4) (setting [1]) is 46 nM; in the test with KARN cells (Jurkat 2C4) (setting [2]) it was 57 nM.

Consider `CCC(=O)CCCCC[C@H](NC(=O)[C@H]1CC12CCN(CC1CC1)CC2)c1ncc(-c2cc3cccnc3cc2OC)[nH]1` [Compound 394], for which the results for the IC50 against HDAC6 and at Recombinant human HDAC8 were 76 nM and more than 900 nM, respectively. Further, the EC50 in the test with KARN cells (Jurkat 2C4) (setting [1]) stood at 18 nM; in the test with KARN cells (Jurkat 2C4) (setting [2]) it was 24 nM.
